Laboratory results from ChEMBL document CHEMBL1201862, “PubChem BioAssay data set” (2004).
Active and inactive are the calls of the source.

Experiments:
Cytochrome P450 2D6 = Cytochrome P450 2D6 (Homo sapiens, UniProt P10635);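 also: CYP2D6 member of a cytochrome P450 panel assay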
Cytochrome P450 2C19 = Cytochrome P450 2C19 (Homo sapiens, UniProt P33261); experiment: Cytochrome panel assay with activity outcomes. Panel member name: p450-cyp2c19 Compounds with AC50 equal or less than 10 uM are considered active; format: functional
Cytochrome P450 2C19, sequence (P33261 whole entry): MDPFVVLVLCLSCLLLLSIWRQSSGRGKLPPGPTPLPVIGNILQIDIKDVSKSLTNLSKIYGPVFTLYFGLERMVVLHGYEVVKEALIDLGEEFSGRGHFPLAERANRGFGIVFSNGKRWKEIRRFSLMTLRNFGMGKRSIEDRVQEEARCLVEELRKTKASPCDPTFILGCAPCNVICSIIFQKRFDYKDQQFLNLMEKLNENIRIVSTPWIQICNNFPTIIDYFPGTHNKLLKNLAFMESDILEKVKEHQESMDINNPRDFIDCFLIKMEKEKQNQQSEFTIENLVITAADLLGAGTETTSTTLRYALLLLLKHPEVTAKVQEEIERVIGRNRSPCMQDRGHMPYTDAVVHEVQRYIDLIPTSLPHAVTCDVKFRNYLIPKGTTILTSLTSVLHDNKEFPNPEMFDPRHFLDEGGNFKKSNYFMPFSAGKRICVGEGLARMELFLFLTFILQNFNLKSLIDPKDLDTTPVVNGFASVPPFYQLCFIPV

Cytochrome P450 3A4 = Cytochrome P450 3A4 (Homo sapiens, UniProt P08684);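 also: CYP3A4 tested as one member of a cytochrome P450 panel screen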
Cytochrome P450 3A4, sequence (P08684 whole entry): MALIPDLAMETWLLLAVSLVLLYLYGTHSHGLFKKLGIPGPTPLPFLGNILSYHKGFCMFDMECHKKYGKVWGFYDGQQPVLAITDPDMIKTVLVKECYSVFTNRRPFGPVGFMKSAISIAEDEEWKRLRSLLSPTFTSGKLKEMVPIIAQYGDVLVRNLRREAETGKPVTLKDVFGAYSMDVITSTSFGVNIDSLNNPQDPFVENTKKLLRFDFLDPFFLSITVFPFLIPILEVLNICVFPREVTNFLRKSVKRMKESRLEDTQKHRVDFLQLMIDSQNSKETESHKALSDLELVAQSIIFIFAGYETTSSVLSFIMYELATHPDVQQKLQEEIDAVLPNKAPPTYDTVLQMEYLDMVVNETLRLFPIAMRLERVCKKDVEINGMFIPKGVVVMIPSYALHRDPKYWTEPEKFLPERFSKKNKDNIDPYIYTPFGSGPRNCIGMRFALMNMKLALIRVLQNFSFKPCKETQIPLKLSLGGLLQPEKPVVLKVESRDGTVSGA

Cytochrome P450 2C9 = Cytochrome P450 2C9 (Homo sapiens, UniProt P11712)
Cytochrome P450 2C9, sequence (P11712 whole entry): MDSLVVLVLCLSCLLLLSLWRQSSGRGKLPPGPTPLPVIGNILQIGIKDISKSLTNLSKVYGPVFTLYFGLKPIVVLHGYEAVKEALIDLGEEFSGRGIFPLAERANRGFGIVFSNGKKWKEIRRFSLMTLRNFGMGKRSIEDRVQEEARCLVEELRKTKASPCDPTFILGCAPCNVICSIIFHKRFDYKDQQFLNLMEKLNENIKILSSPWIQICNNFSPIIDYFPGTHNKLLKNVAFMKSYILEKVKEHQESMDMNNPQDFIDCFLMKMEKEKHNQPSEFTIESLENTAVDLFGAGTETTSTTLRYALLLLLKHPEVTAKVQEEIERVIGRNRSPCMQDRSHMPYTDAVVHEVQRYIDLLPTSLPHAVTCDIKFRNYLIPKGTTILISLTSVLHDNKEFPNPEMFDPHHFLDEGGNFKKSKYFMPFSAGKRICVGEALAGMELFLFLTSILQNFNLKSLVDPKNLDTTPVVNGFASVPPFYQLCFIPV

[1] = Luminescence Cell-Based Dose Retest to Confirm Inhibitors of Cancer Stem Cells. [Related pubchem assays (depositor defined):AID2717, AID2721]; format: functional; conditions: Homo sapiens
[2] = inhibitors of intracellular T. cruzi replication, confirmation, NIH3T3 host cells, beta-gal luminescence (AID 2044); format: functional, cell-based;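 also: intracellular parasites grown in NIH/3T3 mouse fibroblasts as host cells; luminescent beta-galactosidase reporter signal from transgenic T. cruzi replicating inside host cells; inhibitors lower the luminescence signal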
[3] = cytotoxicity toward NIH3T3 fibroblasts, dose response, counter-screen, cell-based, ATP luminescence, mouse fibroblasts (AID 2010); format: functional;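 also: cells exposed to compound for about 90 hours before reading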
Streptococcus = experiment: Group A Streptococcus viability loss, dose response, counter-screen for streptokinase expression inhibitor project, luminescence, BacTiterGlo (AID 1915); format: functional, organism-based;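 also: potency for reduction of bacterial viability or growth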
Streptokinase A = biological target: T1, Streptokinase A (Streptococcus pyogenes serotype M1, UniProt P10520); experiment: S. pyogenes streptokinase expression inhibitors, potency, dose response, plasminogen activation absorbance, OD405 (AID 1914); format: functional, Streptococcus pyogenes M1 GAS;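 also: secreted streptokinase activity via plasminogen activation per viability signal from cell pellet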
T1 sequence (P10520 whole entry): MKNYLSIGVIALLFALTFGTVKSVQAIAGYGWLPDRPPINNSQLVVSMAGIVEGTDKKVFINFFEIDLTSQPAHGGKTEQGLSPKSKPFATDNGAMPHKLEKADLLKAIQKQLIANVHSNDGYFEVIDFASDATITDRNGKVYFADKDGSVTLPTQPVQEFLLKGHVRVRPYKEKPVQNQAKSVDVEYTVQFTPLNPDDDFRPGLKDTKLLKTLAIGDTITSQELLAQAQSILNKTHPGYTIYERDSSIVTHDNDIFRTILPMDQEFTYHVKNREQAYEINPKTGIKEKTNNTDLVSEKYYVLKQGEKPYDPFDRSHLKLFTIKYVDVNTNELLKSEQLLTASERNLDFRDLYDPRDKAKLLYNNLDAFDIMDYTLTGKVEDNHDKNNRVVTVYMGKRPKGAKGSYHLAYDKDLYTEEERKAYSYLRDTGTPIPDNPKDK

Cytochrome P450 1A2 = biological target: T2, Cytochrome P450 1A2 (Homo sapiens, UniProt P05177);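 also: PubChem cytochrome P450 panel assay, CYP1A2 panel member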
T2 sequence (P05177 whole entry): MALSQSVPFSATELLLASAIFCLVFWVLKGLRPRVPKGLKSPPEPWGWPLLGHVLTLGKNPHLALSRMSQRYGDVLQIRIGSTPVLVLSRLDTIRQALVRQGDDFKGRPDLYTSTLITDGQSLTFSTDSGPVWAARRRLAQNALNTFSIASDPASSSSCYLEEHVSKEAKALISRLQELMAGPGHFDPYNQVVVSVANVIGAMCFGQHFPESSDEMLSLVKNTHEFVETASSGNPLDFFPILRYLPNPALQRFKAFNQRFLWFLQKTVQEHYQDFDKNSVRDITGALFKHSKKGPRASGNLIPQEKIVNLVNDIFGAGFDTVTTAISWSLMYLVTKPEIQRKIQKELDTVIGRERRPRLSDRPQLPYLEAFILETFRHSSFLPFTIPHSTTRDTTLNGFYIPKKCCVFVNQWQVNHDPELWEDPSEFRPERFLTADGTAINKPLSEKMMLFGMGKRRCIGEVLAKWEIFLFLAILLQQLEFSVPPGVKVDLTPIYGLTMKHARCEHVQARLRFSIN

[4] = test system: Streptococcus sp. 'group A'; experiment: growth inhibition of control SK(-) GAS strain, dose response, counter-screen for streptokinase expression inhibitor project, luminescence, kanamycin, BacTiterGlo, confirmation (AID 1900); format: functional, organism-based

Cytochrome P450 2D6, sequence (P10635 whole entry): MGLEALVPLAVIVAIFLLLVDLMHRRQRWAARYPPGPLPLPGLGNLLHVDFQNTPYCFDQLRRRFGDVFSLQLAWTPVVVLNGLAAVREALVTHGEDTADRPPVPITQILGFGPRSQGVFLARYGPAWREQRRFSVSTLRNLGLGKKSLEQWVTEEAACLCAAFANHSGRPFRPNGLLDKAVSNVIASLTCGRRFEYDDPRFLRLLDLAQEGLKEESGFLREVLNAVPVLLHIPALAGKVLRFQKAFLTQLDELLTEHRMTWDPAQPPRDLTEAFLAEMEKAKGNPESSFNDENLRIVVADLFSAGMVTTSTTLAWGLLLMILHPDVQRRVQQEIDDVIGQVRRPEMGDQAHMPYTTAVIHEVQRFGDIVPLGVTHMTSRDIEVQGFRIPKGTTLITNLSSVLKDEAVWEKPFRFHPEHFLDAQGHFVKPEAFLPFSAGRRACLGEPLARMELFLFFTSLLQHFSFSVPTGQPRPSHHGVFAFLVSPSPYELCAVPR

Cc1ccc2c(c1)C(=O)[C@@]1(O)CCN(c3ccccc3)C1=N2
AC50 (Cytochrome P450 2D6): 39.8 µM (inconclusive)

CC1(C)CC(=O)C2=C(C1)Oc1nc3ccccc3cc1C2C(C#N)C#N (stereo not drawn)
AC50 (Cytochrome P450 2D6): 0.112 µM (inconclusive)

COc1ccc(S(=O)(=O)NCc2ccc(C(=O)N3CCN(c4ccccn4)CC3)cc2)cc1
AC50 (Cytochrome P450 2C19; read-out: AC50): 7.94 µM (inconclusive)

O=C(Nc1cccc([N+](=O)[O-])c1)c1ccc(CSc2ccccc2)cc1
AC50 (Cytochrome P450 2C19; read-out: AC50): 14.1 µM (inconclusive)
AC50 (Cytochrome P450 3A4): 20 µM (inconclusive)
AC50 (Cytochrome P450 2C9): 0.562 µM (inconclusive)

O=C(C[C@H](c1ccccc1)c1c(O)c2ccccc2oc1=O)c1ccccc1
AC50 (Cytochrome P450 3A4): 3.16 µM (inconclusive)

CN(C)CCNc1nc2sc3c(c2c(=O)n1-c1ccccc1)CCCCC3
AC50 [1]: 4.27 µM (active)

COc1ccc(NC(=O)CCNS(=O)(=O)c2ccc3c(c2)CCC(=O)N3)cc1
AC50 (Cytochrome P450 2C9): 4.47 µM (inconclusive)

Cc1nc2cnc(N3CCNCC3)nc2n(CCc2ccccc2)c1=O
AC50 (Cytochrome P450 2C9): 39.8 µM (inconclusive)

COc1ccc(NC(=O)CN(C)C(=O)/C=C/c2cn(-c3ccccc3)nc2-c2ccc(C)cc2)cc1
EC50 [2]: 2.17 µM (active)
EC50 [3]: > 60 µM (not active)
EC50 (Streptococcus): 114 µM (active)
EC50 (Streptokinase A): > 150 µM (not active)

COc1ccc(CCNc2cc(C)nc3c(-c4ccc(Cl)cc4)c(C)nn23)cc1OC
AC50 [1]: 2.88 µM (active)

CCCc1cc(-c2nc(-c3ccc(C)cc3)cs2)ccn1
AC50 [1]: 3.62 µM (active)

Cc1ccc(C(=O)Cn2nnc3c(sc4nc5c(c(-c6ccccc6)c43)CCC5)c2=O)cc1
AC50 (Cytochrome P450 2C19; read-out: AC50): 25.1 µM (inconclusive)
AC50 [1]: 0.462 µM (active)

Cc1ccccc1OCCNC=C1C(=O)N(C)C(=O)N(C)C1=O
AC50 (Cytochrome P450 3A4): 20 µM (inconclusive)
AC50 (Cytochrome P450 2C9): 0.0126 µM (inconclusive)

O=C(Nc1ccccc1)N1CCC2(CC1)CCN(S(=O)(=O)c1ccccc1)CC2
AC50 (Cytochrome P450 2D6): 39.8 µM (inconclusive)

CCN1CCN(c2cc(C(C)(C)C)nc3c(-c4ccccc4)c(C)nn23)CC1
AC50 [1]: 5.68 µM (active)

COc1cccc(Cn2c(=O)c(-c3cccs3)nc3cnc(N4CCOCC4)nc32)c1
AC50 (Cytochrome P450 2C9): 25.1 µM (inconclusive)

CCCCCCSc1cccc(-c2nc3ccc(Cl)cn3c2NCc2ccccc2)c1
AC50 [1]: 1.55 µM (active)

CN(C)CCOc1ccc(C(C)(C)c2ccccc2)cc1
AC50 [1]: 1.96 µM (active)

COc1ccc(COC2OC[C@]3(C)[C@H]4C5=C(CN3C(=O)OC(C)(C)C)[C@H](C)C(CO)C(CO)C5CC[C@@H]24)cc1 (stereo partly drawn)
AC50 (Cytochrome P450 2C19; read-out: AC50): 39.8 µM (inconclusive)

Cc1cccc(CN2CCN([C@@H](c3ccccc3)c3ccc(Cl)cc3)CC2)c1
AC50 (Cytochrome P450 2C19; read-out: AC50): 2.51 µM (inconclusive)
AC50 (Cytochrome P450 1A2): 10 µM (inconclusive)

O=S(=O)(c1ccccc1)N1CCC2(CCCN(Cc3nccs3)C2)CC1
AC50 (Cytochrome P450 2C19): inconclusive

O=S(=O)(c1cnccc1N1CCN(/N=C/c2ccccc2)CC1)N1CCCCC1
AC50 (Cytochrome P450 2D6): 25.1 µM (inconclusive)

O=C(CCCC1=NS(=O)(=O)c2ccccc2N1)N1CCC2(CC1)OCCO2
AC50 (Cytochrome P450 2C19; read-out: AC50): 17.8 µM (inconclusive)
AC50 (Cytochrome P450 3A4): 35.5 µM (inconclusive)
AC50 (Cytochrome P450 2C9): 25.1 µM (inconclusive)

COc1ccc2c(c1)-c1c(sn(-c3ccc(OC)c(OC)c3)c1=S)C(C)(C)N2
AC50 (Cytochrome P450 2C9): 5.01 µM (inconclusive)

O=[N+]([O-])c1cc(F)c(N2CCOCC2)cc1N1CCCCC1
AC50 (Cytochrome P450 3A4): 17.8 µM (inconclusive)

COc1ccc(-c2sc3ccccc3c2/C=C/c2ccc(N)cc2)cc1
AC50 [1]: 3.98 µM (active)

O/N=C/c1ccccc1OCc1ccc(Cl)cc1
AC50 (Cytochrome P450 2C19; read-out: AC50): 2.82 µM (inconclusive)
AC50 (Cytochrome P450 2D6): 22.4 µM (inconclusive)

C[C@@H](Cc1ccc(Cl)cc1Cl)NO
AC50 (Cytochrome P450 1A2): 0.251 µM (active)

CCOc1ccc(CC(C(N)=O)C(N)=O)cc1CN(C)C
AC50 (Cytochrome P450 2C19; read-out: AC50): 22.4 µM (inconclusive)
AC50 (Cytochrome P450 2D6): 17.8 µM (inconclusive)

CCc1cc2c(nc1CC)CCN(CC/C(C)=N/OC[C@@H](O)COCc1ccco1)C2
AC50 (Cytochrome P450 3A4): 3.16 µM (inconclusive)
AC50 (Cytochrome P450 2D6): 3.98 µM (inconclusive)

CCOC(=O)n1c(=O)n(Cc2ccccc2Cl)c2ccccc21
AC50 (Cytochrome P450 3A4): 15.8 µM (inconclusive)
AC50 (Cytochrome P450 2D6): 28.2 µM (inconclusive)

CS(=O)(=O)N1CCC[C@@]2(CCN(Cc3nccs3)C2)C1
AC50 (Cytochrome P450 2C19; read-out: AC50): 39.8 µM (inconclusive)
AC50 (Cytochrome P450 3A4): 12.6 µM (inconclusive)
AC50 (Cytochrome P450 2D6): 39.8 µM (inconclusive)

O=C(N/N=C/c1ccco1)c1ccccn1
AC50 (Cytochrome P450 2C19): inconclusive

N[C@H]1C[C@H]1c1ccccc1
AC50 (Cytochrome P450 2D6): 12.6 µM (inconclusive)
AC50 (Cytochrome P450 2C9): 12.6 µM (inconclusive)

COCCn1c(C(=O)N2CCCC2)cc2c1C[C@H]1CN(C(=O)c3ccccc3)[C@@](Cc3ccc(OC)cc3)(C(=O)OC)[C@@H]21
AC50 (Cytochrome P450 2C19; read-out: AC50): 39.8 µM (inconclusive)
AC50 (Cytochrome P450 2C9): 39.8 µM (inconclusive)

CN(C)C(=O)CN(c1ccc2c(c1)OCO2)S(C)(=O)=O
AC50 (Cytochrome P450 2C9): 0.178 µM (inconclusive)

CO[C@@H]1COC(=O)[C@@H](CCSC)NC(=O)C/C=C\[C@@H](C)COC(=O)CCC[C@H]1C
AC50 (Cytochrome P450 3A4): 3.98 µM (inconclusive)

CC1CCCN(c2ccc(C(=O)N3CCC4(CC3)OCCO4)cc2[N+](=O)[O-])C1 (stereo not drawn)
AC50 [1]: 4.55 µM (active)

N[C@H](Cc1ccc2oc3cc(=O)c4ccccc4c-3nc2c1)C(=O)O
AC50 (Cytochrome P450 3A4): 3.98 µM (inconclusive)

NC(=O)C1(N2CCCCC2)CCN(C(=O)c2ccc(-n3cnnn3)cc2)CC1
AC50 (Cytochrome P450 2D6): 1.58 µM (inconclusive)

CC(C)C(NC(=O)OCc1ccccc1)C(=O)O (stereo not drawn)
AC50 (Cytochrome P450 2C9): 11.2 µM (inconclusive)

CN(C)c1ncnc2ccc(-c3ccccc3C(F)(F)F)cc12
AC50 (Cytochrome P450 3A4): 10 µM (inconclusive)
AC50 (Cytochrome P450 2D6): 15.8 µM (inconclusive)

COc1ccc(CNc2ccnc(-c3ccccc3CN(C)C)n2)c(OC)c1
AC50 (Cytochrome P450 1A2): 15.8 µM (inconclusive)

COc1ccc(-n2c(=O)c(-c3cccc(F)c3)nc3cncnc32)cc1
AC50 (Cytochrome P450 2C19; read-out: AC50): 31.6 µM (inconclusive)

Cn1cccc1C(=O)N1CCC[C@@]2(CCN(Cc3cc(C(F)(F)F)cc(C(F)(F)F)c3)C2)C1
AC50 (Cytochrome P450 2C19; read-out: AC50): 39.8 µM (inconclusive)
AC50 (Cytochrome P450 2C9): 39.8 µM (inconclusive)

O=P(O)(CCc1ccccc1)C(O)c1ccccc1 (stereo not drawn)
AC50 (Cytochrome P450 2D6): 35.5 µM (inconclusive)

CCOC(=O)CC1C(=O)NCCN1S(=O)(=O)c1ccccc1Cl (stereo not drawn)
AC50 (Cytochrome P450 2C19; read-out: AC50): 11.2 µM (inconclusive)
AC50 (Cytochrome P450 3A4): 14.1 µM (inconclusive)
AC50 (Cytochrome P450 2D6): 0.891 µM (inconclusive)
AC50 (Cytochrome P450 2C9): 0.00562 µM (inconclusive)

CCC(C)(C)NC(=NC#N)Nc1cccnc1
AC50 (Cytochrome P450 2D6): 39.8 µM (inconclusive)

Cc1cc(NCCO)c2ccccc2n1
AC50 (Cytochrome P450 2C19; read-out: AC50): 39.8 µM (inconclusive)

OC[C@@H]1O[C@@H](O)[C@H](/N=C\c2ccc3c(c2)OCO3)[C@@H](O)[C@@H]1O
AC50 (Cytochrome P450 2C19): inconclusive

COc1ccc(S(=O)(=O)Nc2ccc(F)cc2)c(C)c1C
AC50 (Cytochrome P450 2D6): 0.447 µM (inconclusive)

COCC(=O)N1CCC2(CCCN(c3ccncc3)C2)CC1
AC50 (Cytochrome P450 3A4): 25.1 µM (inconclusive)

COc1ccc2c3ncn(CCc4c[nH]cn4)c(O)c-3nc2c1
EC50 (Streptococcus): > 150 µM (not active)
EC50 [4]: > 150 µM (not active)
EC50 (Streptokinase A): > 150 µM (not active)

CN(C)C(=O)c1ccc(-c2cncnc2NCc2cccs2)cc1
AC50 (Cytochrome P450 2D6): 39.8 µM (inconclusive)

CCCCSc1ccc2nc(-c3ccc(C#N)cc3)cn2c1
EC50 (Streptococcus): 14.4 µM (active)
EC50 [4]: 13.1 µM (active)
EC50 (Streptokinase A): > 150 µM (not active)

CN1CCN(c2ccc([N+](=O)[O-])c(NCc3ccco3)c2)CC1
AC50 [1]: 0.512 µM (active)

Cc1nc2sccc2c(=O)n1-c1ccccc1Cl
AC50 (Cytochrome P450 2D6): 14.1 µM (inconclusive)

CC(C)c1cccc(C(C)C)c1OC(=O)[C@H]1OC(c2ccc(Br)cc2)=C[C@@H]1c1ccc(Br)cc1
AC50 [1]: 3.58 µM (active)

COc1cc(C(=O)OC(C)C(=O)Nc2ccc3c(c2)OCO3)ccc1OCc1c(C)noc1C (stereo not drawn)
AC50 (Cytochrome P450 2D6): 28.2 µM (inconclusive)

CC(c1ccccc1C(O)c1ccccc1)N(C)C (stereo not drawn)
AC50 (Cytochrome P450 2C9): 0.0355 µM (inconclusive)

CC#C[C@]1(O)CC[C@H]2[C@@H]3CCC4=CC(=O)CCC4=C3[C@H](c3ccc(N(C)C)cc3)C[C@@]21C
AC50 (Cytochrome P450 1A2): 25.1 µM (inconclusive)
